# Test results from patent publication US12691070B2, “Cationic lipids and preparation method thereof” (RiboX Therapeutics HK Limited, priority 2023, dated 2026).
# Key:
# [1] = LNP size and polydispersity index (PDI) by dynamic light scattering; format: physicochemical; conditions: LNP with cirRNA (SEQ ID NO: 1); for Size: in nm (unit assumed)
# How it was run: (§1)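 Ribogreen fluorescence with and without Triton X-100 gave encapsulation as 100% − (intact/lysed) signal; DLS size, PDI and zeta potential measured on a Zetasizer. Particles: 50:10:38.5:1.5 lipid mix, luciferase circRNA or mRNA, lipid:nucleotide 15 or 6, microfluidic assembly at pH 4.5, PBS-dialyzed.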
# Hep G2 cells [2] = assay: In vitro toxicity (CellTiter-Glo cell viability), Hep G2; format: cell-based; conditions: cirRNA (SEQ ID NO: 1) LNPs; Hep G2 cells;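 also: percent of untreated cells luminescence signal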
# How it was run: (§2)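 Viability after a 72 h incubation with 1 μg/mL RNA-LNP formulations was assessed luminometrically using CellTiter-Glo.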
# RAW 264.7 cells [3] = assay: In vitro toxicity (CellTiter-Glo cell viability), RAW 264.7; format: cell-based; conditions: cirRNA (SEQ ID NO: 1) LNPs; RAW 264.7 cells;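 also: percent of untreated cells luminescence signal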
# How it was run: as §2
# [4] = RNA encapsulation efficacy by Quant-IT Ribogreen kit; format: physicochemical; conditions: LNP with cirRNA (SEQ ID NO: 1)
# How it was run: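 Dynamic light scattering and zeta potential measurements were run on PBS-dialyzed LNPs, which had been formed by microfluidic mixing at 12 ml/min with final lipid at 1.5 mM to 6 mM. RNA content and percent encapsulation were determined by Ribogreen with and without Triton X-100.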
# RAW 264.7 cells [5] = assay: In vitro expression of firefly-luciferase, RAW 264.7; format: cell-based; conditions: cirRNA (SEQ ID NO: 1) LNPs; firefly-luciferase luminescence; RAW 264.7 cells
# How it was run: (§3)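 First, cells were dosed with RNA lipid nanoparticles encoding firefly luciferase (100 ng/mL). Second, at 72 h they were washed and lysed. Third, lysate luciferase activity was read with a luminometer.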
# Hep G2 cells [6] = assay: In vitro expression of firefly-luciferase, Hep G2; format: cell-based; conditions: cirRNA (SEQ ID NO: 1) LNPs; firefly-luciferase luminescence; Hep G2 cells
# How it was run: as §3
# [7] = LNP zeta potential (Zetasizer); format: physicochemical; conditions: LNP with cirRNA (SEQ ID NO: 1)
# How it was run: as §1
# BALB/C mice = assay: In vivo expression, whole-body luminescence (IVIS); conditions: cirRNA (SEQ ID NO: 1) LNPs, BALB/C mice
# Protocol: 6-8 week old, female BALB/C mice were injected with 0.05 mg*kg-1 of RNA-LNPs encoding for firefly-luciferase by intravenous injection. At 6 hours post injection, animals were intraperitoneally injected with 15 mg/ml of Luciferin substrate and whole-body luminescence was determined by a bioluminescent in vivo imaging system (IVIS).
compound,measurement,setting,value
CCCCCCCCC(CCCCCCCC)OC(=O)CCCCCCCN(CCCCCCCCOC(=O)C(CCCCCC)CCCCCCCC)CCCOC(=O)NCc1ncc[nH]1 (stereo not drawn) [Lipid 345],PDI,[1],0.1901
same,Size,[1],70.01
same,In vitro Viability HepG2,Hep G2 cells [2],99%
same,In vitro Viability RAW,RAW 264.7 cells [3],102%
same,Encapsulation Efficiency %,[4],92%
same,In vitro Expression RAW,RAW 264.7 cells [5],2.20E+05
same,In vitro Expression HepG2,Hep G2 cells [6],2.57E+06
same,Zeta (mV),[7],−2.69 mV
same,In vivo Expression (Whole Body),BALB/C mice,2.49E+06
CCCCCCCCCC(=O)OCCCCCCCN(CCCCCCCCOC(=O)C(CCCCCC)CCCCCCCC)CCOC(=O)NCCN1CCN(C)CC1 (stereo not drawn) [Lipid 200],PDI,[1],0.2967
same,Size,[1],82.06
same,In vitro Viability HepG2,Hep G2 cells [2],103%
same,In vitro Viability RAW,RAW 264.7 cells [3],0%
same,Encapsulation Efficiency %,[4],95%
same,In vitro Expression RAW,RAW 264.7 cells [5],4.45E+04
same,In vitro Expression HepG2,Hep G2 cells [6],4.46E+05
same,Zeta (mV),[7],7.27 mV
same,In vivo Expression (Whole Body),BALB/C mice,6.79E+05
CCCCC/C=C\C/C=C\CCCCCCCCN(CCCCCCCC(=O)OC(CCCCCCCC)CCCCCCCC)CCCOC(=O)NCCCN(CC)CC [Lipid 272],PDI,[1],0.3463
same,Size,[1],74.91
same,In vitro Viability HepG2,Hep G2 cells [2],97%
same,In vitro Viability RAW,RAW 264.7 cells [3],121%
same,Encapsulation Efficiency %,[4],95%
same,In vitro Expression RAW,RAW 264.7 cells [5],1.34E+06
same,In vitro Expression HepG2,Hep G2 cells [6],1.01E+07
same,Zeta (mV),[7],5.434 mV
same,In vivo Expression (Whole Body),BALB/C mice,6.35E+06
"CCCCC/C=C\C/C=C\CCCCCCCCN(CCCCCCCC/C=C\CCCCCCCC)CCOC(=O)NCCCN(CC)CC [Lipid 69, 2-(((Z)-octadec-9-en-1-yl)((9Z,12Z)-octadeca-9,12-dien-1-yl)amino)ethyl (3-(diethylamino)propyl)carbamate]",PDI,[1],0.205
same,Size,[1],161.1
same,In vitro Viability HepG2,Hep G2 cells [2],86%
same,In vitro Viability RAW,RAW 264.7 cells [3],102%
same,Encapsulation Efficiency %,[4],95%
same,In vitro Expression RAW,RAW 264.7 cells [5],2.25E+02
same,In vitro Expression HepG2,Hep G2 cells [6],4.62E+04
same,Zeta (mV),[7],16.31 mV
same,In vivo Expression (Whole Body),BALB/C mice,2.17E+06
CCCCC/C=C\C/C=C\CCCCCCCCN(CCCCCCCC(=O)OC(CCCCCCCC)CCCCCCCC)CCCOC(=O)NCCN1CCOCC1 [Lipid 274],PDI,[1],0.112
same,Size,[1],50.6
same,In vitro Viability HepG2,Hep G2 cells [2],97%
same,In vitro Viability RAW,RAW 264.7 cells [3],127%
same,Encapsulation Efficiency %,[4],94%
same,In vitro Expression RAW,RAW 264.7 cells [5],4.30E+05
same,In vitro Expression HepG2,Hep G2 cells [6],4.11E+06
same,Zeta (mV),[7],−2.714 mV
same,In vivo Expression (Whole Body),BALB/C mice,2.06E+07
CCCCCCCC/C=C\CCCCCCCCN(CCCCCCCCOC(=O)C(CCCCCC)CCCCCCCC)CCOC(=O)NCCCN(C)C (stereo not drawn) [Lipid 216],PDI,[1],0.4093
same,Size,[1],75.92
same,In vitro Viability HepG2,Hep G2 cells [2],76%
same,In vitro Viability RAW,RAW 264.7 cells [3],75%
same,Encapsulation Efficiency %,[4],96%
same,In vitro Expression RAW,RAW 264.7 cells [5],3.31E+05
same,In vitro Expression HepG2,Hep G2 cells [6],1.59E+07
same,Zeta (mV),[7],11.61 mV
same,In vivo Expression (Whole Body),BALB/C mice,1.34E+06
CCCCCCCC/C=C\CCCCCCCCN(CCCCCCCCOC(=O)C(CCCCCC)CCCCCCCC)CCOC(=O)NCc1ncc[nH]1 (stereo not drawn) [Lipid 212],PDI,[1],0.1853
same,Size,[1],65.77
same,In vitro Viability HepG2,Hep G2 cells [2],99%
same,In vitro Viability RAW,RAW 264.7 cells [3],82%
same,Encapsulation Efficiency %,[4],93%
same,In vitro Expression RAW,RAW 264.7 cells [5],1.44E+05
same,In vitro Expression HepG2,Hep G2 cells [6],6.37E+04
same,Zeta (mV),[7],−3.175 mV
same,In vivo Expression (Whole Body),BALB/C mice,4.68E+06
